Experimental findings from patent US20240409585A1, “MACROCYCLIC IMMUNOMODULATORS” (priority 2021, published 2024) are described below.

The structures appear in SMILES notation. Numbered stars: 1 amine (or outer) side, 2 acyl side, 3 side chain; on linkers, the order of the positions; unused ones are H or OH. Bridge positions count the residues as written; N and C are the ends. Square brackets hold non-standard residues; d marks the D form. Peptide text beside a SMILES is read from it. * marks the point of attachment. ξ: configuration not given here. Phe(3-CF3) = N[C@@H](Cc1cccc(C(F)(F)F)c1)C(=O)O; Phe(4-COOH) = N[C@@H](Cc1ccc(C(=O)O)cc1)C(=O)O; Bip = N[C@@H](Cc1ccc(-c2ccccc2)cc1)C(=O)O; Phe(3-OMe) = COc1cccc(C[C@H](N)C(=O)O)c1; Phe(4-Cl) = N[C@@H](Cc1ccc(Cl)cc1)C(=O)O; Ala(2-furyl) = N[C@@H](Cc1ccco1)C(=O)O; Val(3-OH) = CC(C)(O)[C@H](N)C(=O)O; X49 = O=C(C(N[*:1])C1CCOCC1)[*:2]; ξW = NC(Cc1c[nH]c2ccccc12)C(=O)O; Cha = N[C@@H](CC1CCCCC1)C(=O)O; Cit = NC(=O)NCCC[C@H](N)C(=O)O; Ile(3ξ) = CCC(C)[C@H](N)C(=O)O; Thr(3ξ) = CC(O)[C@H](N)C(=O)O; Carboxymethyl = O=C(O)C*; NMeA = CN[C@@H](C)C(=O)O; Dab = NCC[C@H](N)C(=O)O

The test deals with T1, PE-labeled human PD-L1-Ig binding to Jurkat cell line over-expressing human PD-1 (Jurkat-PD-1) (Homo sapiens, UniProt Q15116).
T1 construct: expressed in transfected cells; host or cells: Jurkat
T1 sequence (Q15116 25-288): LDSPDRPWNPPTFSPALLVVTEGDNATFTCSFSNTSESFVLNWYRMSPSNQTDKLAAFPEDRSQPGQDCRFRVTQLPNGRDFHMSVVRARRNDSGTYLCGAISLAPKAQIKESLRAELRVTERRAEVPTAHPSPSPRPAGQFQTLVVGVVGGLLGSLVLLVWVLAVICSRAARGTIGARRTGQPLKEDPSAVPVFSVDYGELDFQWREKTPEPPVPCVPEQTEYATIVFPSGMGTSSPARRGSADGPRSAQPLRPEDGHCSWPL
Nature of the test: Jurkat-PD-1 Cell Binding High-Content Screening Assay (CBA): Method 1. As to conditions: Jurkat-hPD-1 cells, PE-labeled PD-L1-Ig 20 nM final; read-out: Jurkat HPDL1 PD1 IC50 (uM) (Method 1).
One may read the IC50 as the concentration needed to halve the response being measured. With `COc1cccc(C[C@@H]2NC(=O)[C@H](CC(=O)O)NC(=O)[C@H](Cc3ccc(O)cc3)NC(=O)[C@H](CC(N)=O)NC(=O)CSC[C@@H](C(=O)N[C@@H](C)C(N)=O)NC(=O)[C@H]([C@@H](C)O)NC(=O)[C@H](C(C)C)NC(=O)[C@H](CC(C)C)NC(=O)[C@H](CCN)NC(=O)[C@@H](CC(C)C)NC(=O)[C@H](C)N(C)C(=O)[C@H](CCCNC(N)=O)NC(=O)[C@H](Cc3ccc(-c4ccccc4)cc3)NC(=O)[C@H](C(C)C)NC2=O)c1` [Compound 1231] ({CH2CO}-NYD[Phe(3-OMe)]V[Bip][Cit][NMeA][dL][Dab]LVTCA-NH2; thioether N-14), the IC50 came to 0.04 µM.
As for `CC(C)C[C@@H]1NC(=O)[C@H](CCCNC(=N)N)NC(=O)C(Cc2c[nH]c3ccccc23)NC(=O)[C@H](C)N(C)C(=O)[C@H](CCCNC(=N)N)NC(=O)[C@H](Cc2ccc(-c3ccccc3)cc2)NC(=O)[C@H](C(C)C)NC(=O)[C@H](Cc2c[nH]c3ccccc23)NC(=O)[C@H](CC(=O)O)NC(=O)[C@H](Cc2ccc(O)cc2)NC(=O)[C@H](Cc2ccccc2)NC(=O)CSC[C@@H](C(=O)NCC(N)=O)NC(=O)[C@H](CO)NC(=O)[C@H](C(C)C)NC1=O` (stereo partly drawn) [Compound 1021] ({CH2CO}-FYDWV[Bip]R[NMeA][ξW]RLVSCG-NH2; thioether N-14), the IC50 is 0.14 µM.
As for `CC(C)C[C@@H]1NC(=O)[C@H](CCCNC(=N)N)NC(=O)[C@@H](CC(C)C)NC(=O)[C@H](C)N(C)C(=O)[C@H](CCCNC(=N)N)NC(=O)[C@H](Cc2ccc(-c3ccccc3)cc2)NC(=O)[C@H](C(C)C)NC(=O)[C@H](Cc2c[nH]c3ccccc23)NC(=O)[C@H](CC(=O)O)NC(=O)[C@H](Cc2ccc(Cl)cc2)NC(=O)[C@H](Cc2ccccc2)NC(=O)CSC[C@@H](C(=O)N[C@@H](C)C(N)=O)NC(=O)[C@H]([C@@H](C)O)NC(=O)[C@H](C(C)C)NC1=O` [Compound 1081] ({CH2CO}-F[Phe(4-Cl)]DWV[Bip]R[NMeA][dL]RLVTCA-NH2; thioether N-14), the IC50 amounted to 0.06 µM.
To `CCC(C)[C@@H]1NC(=O)[C@H](Cc2ccc(-c3ccccc3)cc2)NC(=O)[C@H](CC(C)C)NC(=O)[C@H](Cc2c[nH]c3ccccc23)NC(=O)[C@H](CC(=O)O)NC(=O)[C@H](Cc2ccc(C(=O)O)cc2)NC(=O)[C@H](Cc2ccc(OCC(=O)O)cc2)NC(=O)CSC[C@@H](C(=O)N[C@@H](CC(N)=O)C(N)=O)NC(=O)[C@H](CCC(=O)O)NC(=O)[C@H](C(C)C)NC(=O)[C@H](CC2CCCCC2)NC(=O)[C@H](CCN)NC(=O)[C@@H](CC(C)C)NC(=O)[C@H](C)N(C)C1=O` (stereo partly drawn) [Compound 1921] ({CH2CO}-Y(Carboxymethyl)[Phe(4-COOH)]DWL[Bip][Ile(3ξ)][NMeA][dL][Dab][Cha]VECN-NH2; thioether N-14) belongs 0.01 µM.
The same measure for `CC(C)C[C@@H]1NC(=O)[C@H](Cc2c[nH]c3ccccc23)NC(=O)[C@H](CC(=O)O)NC(=O)[C@H](Cc2cccc(C(F)(F)F)c2)NC(=O)[C@H](Cc2ccccc2)NC(=O)CSC[C@@H](C(=O)N[C@@H](C)C(N)=O)NC(=O)[C@H](CO)NC(=O)[C@H](C(C)C)NC(=O)[C@H](CC(C)C)NC(=O)[C@H](CC(N)=O)NC(=O)[C@@H](C)NC(=O)[C@H](C)N(C)C(=O)[C@H](C(C)C)NC(=O)[C@H](Cc2ccc(-c3ccccc3)cc2)NC1=O` [Compound 1777] ({CH2CO}-F[Phe(3-CF3)]DWL[Bip]V[NMeA][dA]NLVSCA-NH2; thioether N-14): 0.06 µM; for `CCC(C)[C@@H]1NC(=O)[C@H](Cc2ccc(-c3ccccc3)cc2)NC(=O)[C@H](C(C)C)NC(=O)[C@H](Cc2c[nH]c3ccccc23)NC(=O)[C@H](CC(=O)O)NC(=O)[C@H](Cc2ccc(O)cc2)NC(=O)[C@H](Cc2ccco2)NC(=O)CSC[C@@H](C(=O)NC(C(N)=O)C2CCOCC2)NC(=O)[C@H](C(C)O)NC(=O)[C@H](C(C)(C)O)NC(=O)[C@H](CC2CCCCC2)NC(=O)[C@H](CC(N)=O)NC(=O)[C@@H](CC(C)C)NC(=O)[C@H](C)N(C)C1=O` (stereo partly drawn) [Compound 2176] ({CH2CO}-[Ala(2-furyl)]YDWV[Bip][Ile(3ξ)][NMeA][dL]N[Cha][Val(3-OH)][Thr(3ξ)]C[X49]-NH2; thioether N-14): 0.19 µM.
